Results as given in paper PMC7795354, “Development of Radiogallium-Labeled Peptides for Platelet-Derived Growth Factor Receptor β (PDGFRβ) Imaging: Influence of Different Linkers” (Molecules, 2020).
“And” between values parts separate entries of the source, which are not always exact repeats. Equal values may be shown once. Read-outs that look alike come from different tables or passages of the source. Where a SMILES comes first, the peptide text is derived from it. The star is where a group is joined. DOTA = O=C(O)CN1CCN(CC(=O)O)CCN(CC(=O)*)CCN(CC(=O)O)CC1; AEEA = NCCOCCOCC(=O)O

Legend:
[1] = Octanol-water partition coefficient (log P), shake-flask; conditions: n-octanol/PBS, pH 7.4
Protocol: The octanol-water partition coefficients for radiotracers were determined via the assessment of their distribution in n-octanol and PBS (pH 7.4) using shake-flask method as described previously [48]. Radioactivity of each layer was measured using auto well gamma counter (n = 4).

[2] = In vitro stability in murine plasma; conditions: 37 °C
Protocol: (§3) Briefly, the solution of radiotracers (37 kBq/well, 50 µL) in a sealed tube containing 0.1 M PBS pH 7.4 (450 µL) was incubated at 37 °C for 24 h. At 3 and 24 h after incubation, the purity of radiotracers was analyzed by RP-HPLC. Meanwhile, for stability assay in murine plasma, radiotracers were mixed in murine plasma at a ratio of 1:10. After incubation at 37 °C for 10 min and 1 h, an equivalent amount of ice-cold acetonitrile was added. After centrifugation at 1000× g at 4 °C for 10 min, the supernatant was filtered through a 0.45-µm filter followed by analyzing using RP-HPLC as described above. Then, the radiochemical purities were determined.

[3] = system: BxPC3-luc tumor-bearing mice; assay: Biodistribution in BxPC3-luc tumor-bearing mice; assay type: in vivo, BALB/c nu/nu mice
Protocol: (§1) All animal handling procedures were approved by the Kanazawa University Animal Care Committee. Experiments with animals were conducted in accordance with the Guidelines for the Care and Use of Laboratory Animals of Kanazawa University. The animals were housed with free access to food and water at 23 °C with a 12 h light/dark schedule. Four-week-old female BALB/c nu/nu mice (12–17 g) were purchased from Japan SLC Inc. (Hamamatsu, Japan). The tumor-bearing model was prepared by subcutaneous inoculation of 1 × 10^7 BxPC3-luc cells into left shoulder of female BALB/c nu/nu mice. The biodistribution experiment was performed approximately 4–5 weeks post-inoculation.
(§2) A saline solution of [^67Ga]27 or [^67Ga]28 (74 kBq, 100 µL) was injected intravenously into the tail vein of the mice. The mice were sacrificed at 10 min post-injection for [^67Ga]27 and 1 h post-injection for [^67Ga]27 or [^67Ga]28. For in vivo blocking studies, 100 μL of a mixed saline solution of [^67Ga]27 (74 kBq) and IPLPPPRRPFFK peptide (1 mg/mouse) was injected via tile vein into the tumor-bearing mice. The mice were sacrificed at 1 h post-injection. Tissues of interest were removed and weighed. The radioactivity of the tissues was determined using an auto well gamma counter, and counts were corrected for background radiation and physical decay during counting. The data were expressed as percent injected dose per gram tissue (%ID/g).

[4] = Biodistribution in BxPC3-luc tumor-bearing mice; assay type: in vivo, BALB/c nu/nu mice; conditions: female, BALB/c nu/nu, iv, total radioactivity
Protocol: as §1, §2

[5] = Biodistribution in BxPC3-luc tumor-bearing mice; assay type: in vivo; conditions: female, BALB/c nu/nu, mouse, stomach, iv, 74 kBq, total radioactivity; 1 h post-injection
[6] = In vitro stability in PBS pH 7.4; conditions: 37 °C, 0.1 M PBS pH 7.4
Protocol: as §3

CC[C@H](C)[C@H](NC(=O)COCCOCCNC(=O)CN1CCN(CC(=O)O)CCN(CC(=O)O)CCN(CC(=O)O)CC1)C(=O)N1CCC[C@H]1C(=O)N[C@@H](CC(C)C)C(=O)N1CCC[C@H]1C(=O)N1CCC[C@H]1C(=O)N1CCC[C@H]1C(=O)N[C@@H](CCCNC(=N)N)C(=O)N[C@@H](CCCNC(=N)N)C(=O)N1CCC[C@H]1C(=O)N[C@@H](Cc1ccccc1)C(=O)N[C@@H](Cc1ccccc1)C(=O)N[C@@H](CCCCN)C(=O)O [[^67Ga]27, [^67Ga]Ga-DOTA-EG2-IPLPPPRRPFFK, metal not drawn] ({DOTA-AEEA}-IPLPPPRRPFFK-OH)
logP [1]: < -4
In vitro stability in murine plasma, percentage of remained intact radiotracer ([2]; 1 h, 60 min): 75.9 ± 1.2%
remaining at 10 min ([2]; mouse, plasma, In vitro stability in murine plasma, percentage of remained intact radiotracer, 10 min): 84.4 ± 2%
remaining at 1 h ([2]; mouse, plasma, In vitro stability in murine plasma, percentage of remained intact radiotracer, 1 h): > 75%
Tumor/Blood ratio ([3]; 1 h, blocking: co-injection of IPLPPPRRPFFK 1 mg/mouse): significantly decreased
Tumor/Blood ratio ([3]; 1 h post-injection, i.v.): 2.61 and 2.61 ± 0.75
tissue uptake at 1 h ([4]; blood, 1 h, blocking: co-injection of IPLPPPRRPFFK 1 mg/mouse, read-out: Biodistribution, Blood): 0.93 %ID/g
tissue uptake at 1 h ([4]; bone, 1 h, blocking: co-injection of IPLPPPRRPFFK 1 mg/mouse, read-out: Biodistribution, Bone): 0.21 %ID/g
tissue uptake at 1 h ([4]; brain, 1 h, blocking: co-injection of IPLPPPRRPFFK 1 mg/mouse, read-out: Biodistribution, Brain): 0.02 %ID/g
tissue uptake at 1 h ([4]; heart, 1 h, blocking: co-injection of IPLPPPRRPFFK 1 mg/mouse, read-out: Biodistribution, Heart): 0.28 %ID/g
tissue uptake at 1 h ([4]; 1 h, blocking: co-injection of IPLPPPRRPFFK 1 mg/mouse, BxPC3-luc tumor, read-out: Biodistribution, Tumor): 0.96 %ID/g
tissue uptake at 1 h ([4]; kidney, 1 h, blocking: co-injection of IPLPPPRRPFFK 1 mg/mouse, read-out: Biodistribution, Kidney): 12.2 %ID/g
tissue uptake at 1 h ([4]; large intestine, 1 h, blocking: co-injection of IPLPPPRRPFFK 1 mg/mouse, read-out: Biodistribution, Large intestine): 0.25 %ID/g
tissue uptake at 1 h ([4]; liver, 1 h, blocking: co-injection of IPLPPPRRPFFK 1 mg/mouse, read-out: Biodistribution, Liver): 0.27 %ID/g
tissue uptake at 1 h ([4]; lung, 1 h, blocking: co-injection of IPLPPPRRPFFK 1 mg/mouse, read-out: Biodistribution, Lung): 0.66 %ID/g
tissue uptake at 10 min ([4]; mouse, blood, 74 kBq, 10 min post-injection, i.v., read-out: Biodistribution, Blood): 3.87 %ID/g
tissue uptake at 1 h ([4]; mouse, blood, 74 kBq, 1 h post-injection, i.v., read-out: Biodistribution, Blood): 0.15 %ID/g
tissue uptake at 10 min ([4]; mouse, bone, 74 kBq, 10 min post-injection, i.v., read-out: Biodistribution, Bone): 1.62 %ID/g
tissue uptake at 1 h ([4]; mouse, bone, 74 kBq, 1 h post-injection, i.v., read-out: Biodistribution, Bone): 0.24 %ID/g
tissue uptake at 10 min ([4]; mouse, brain, 74 kBq, 10 min post-injection, i.v., read-out: Biodistribution, Brain): 0.13 %ID/g
tissue uptake at 1 h ([4]; mouse, brain, 74 kBq, 1 h post-injection, i.v., read-out: Biodistribution, Brain): 0.01 %ID/g
tissue uptake at 10 min ([4]; mouse, heart, 74 kBq, 10 min post-injection, i.v., read-out: Biodistribution, Heart): 1.47 %ID/g
tissue uptake at 1 h ([4]; mouse, heart, 74 kBq, 1 h post-injection, i.v., read-out: Biodistribution, Heart): 0.07 %ID/g
tissue uptake at 10 min ([4]; mouse, 74 kBq, 10 min post-injection, i.v., BxPC3-luc tumor, read-out: Biodistribution, Tumor): 3.11 %ID/g
tissue uptake at 1 h ([4]; mouse, 74 kBq, 1 h post-injection, i.v., BxPC3-luc tumor, read-out: Biodistribution, Tumor): 0.39 %ID/g
tissue uptake at 10 min ([4]; mouse, kidney, 74 kBq, 10 min post-injection, i.v., read-out: Biodistribution, Kidney): 13.9 %ID/g
tissue uptake at 1 h ([4]; mouse, kidney, 74 kBq, 1 h post-injection, i.v., read-out: Biodistribution, Kidney): 3.07 %ID/g
tissue uptake at 10 min ([4]; mouse, large intestine, 74 kBq, 10 min post-injection, i.v., read-out: Biodistribution, Large intestine): 0.87 %ID/g
tissue uptake at 1 h ([4]; mouse, large intestine, 74 kBq, 1 h post-injection, i.v., read-out: Biodistribution, Large intestine): 0.13 %ID/g
tissue uptake at 10 min ([4]; mouse, liver, 74 kBq, 10 min post-injection, i.v., read-out: Biodistribution, Liver): 0.9 %ID/g
tissue uptake at 1 h ([4]; mouse, liver, 74 kBq, 1 h post-injection, i.v., read-out: Biodistribution, Liver): 0.22 %ID/g
tissue uptake at 10 min ([4]; mouse, lung, 74 kBq, 10 min post-injection, i.v., read-out: Biodistribution, Lung): 3.7 %ID/g
tissue uptake at 1 h ([4]; mouse, lung, 74 kBq, 1 h post-injection, i.v., read-out: Biodistribution, Lung): 0.46 %ID/g
tissue uptake at 10 min ([4]; mouse, muscle, 74 kBq, 10 min post-injection, i.v., read-out: Biodistribution, Muscle): 0.86 %ID/g
tissue uptake at 1 h ([4]; mouse, muscle, 74 kBq, 1 h post-injection, i.v., read-out: Biodistribution, Muscle): 0.07 %ID/g
tissue uptake at 10 min ([4]; mouse, pancreas, 74 kBq, 10 min post-injection, i.v., read-out: Biodistribution, Pancreas): 0.89 %ID/g
tissue uptake at 1 h ([4]; mouse, pancreas, 74 kBq, 1 h post-injection, i.v., read-out: Biodistribution, Pancreas): 0.13 %ID/g
tissue uptake at 10 min ([4]; mouse, small intestine, 74 kBq, 10 min post-injection, i.v., read-out: Biodistribution, Small intestine): 1.16 %ID/g
tissue uptake at 1 h ([4]; mouse, small intestine, 74 kBq, 1 h post-injection, i.v., read-out: Biodistribution, Small intestine): 0.63 %ID/g
tissue uptake at 10 min ([4]; mouse, spleen, 74 kBq, 10 min post-injection, i.v., read-out: Biodistribution, Spleen): 0.99 %ID/g
tissue uptake at 1 h ([4]; mouse, spleen, 74 kBq, 1 h post-injection, i.v., read-out: Biodistribution, Spleen): 0.13 %ID/g
tissue uptake dose at 10 min ([4]; mouse, stomach, 74 kBq, 10 min post-injection): 0.19 %ID
tissue to tissue ratio at 10 min ([4]; mouse, tumor/blood, 74 kBq, 10 min post-injection): 0.81
tissue to tissue ratio at 1 h ([4]; mouse, tumor/blood, 74 kBq, 1 h post-injection): 2.61
tissue uptake at 1 h ([4]; muscle, 1 h, blocking: co-injection of IPLPPPRRPFFK 1 mg/mouse, read-out: Biodistribution, Muscle): 0.22 %ID/g
tissue uptake at 1 h ([4]; pancreas, 1 h, blocking: co-injection of IPLPPPRRPFFK 1 mg/mouse, read-out: Biodistribution, Pancreas): 0.21 %ID/g
tissue uptake at 1 h ([4]; small intestine, 1 h, blocking: co-injection of IPLPPPRRPFFK 1 mg/mouse, read-out: Biodistribution, Small intestine): 0.66 %ID/g
tissue uptake at 1 h ([4]; spleen, 1 h, blocking: co-injection of IPLPPPRRPFFK 1 mg/mouse, read-out: Biodistribution, Spleen): 0.29 %ID/g
tissue uptake dose at 1 h ([4]; stomach, 1 h, blocking: co-injection of IPLPPPRRPFFK 1 mg/mouse): 0.05 %ID
tissue to tissue ratio at 1 h ([4]; tumor/blood, 1 h, blocking: co-injection of IPLPPPRRPFFK 1 mg/mouse): 1.19
tissue uptake dose at 1 h [5]: 0.06 %ID
In vitro stability in PBS pH 7.4, percentage of remained intact radiotracer ([6]; 3 h): 96.9 ± 0.5%
In vitro stability in PBS pH 7.4, percentage of remained intact radiotracer ([6]; 24 h): 95.6 ± 0.4%
